Source: US20160081947A1, “SELECTIVE LSD1 AND DUAL LSD1/MAO-B INHIBITORS FOR MODULATING DISEASES ASSOCIATED WITH ALTERATIONS IN PROTEIN CONFORMATION” (ORYZON GENOMICS S.A., priority 2010, published 2016)
“Also recorded” adds a separate entry of the source. Read-outs that look alike come from different tables or passages of the source. One block for each compound: values may come before it.

Columns and labels:
SH-SY5Y cells = assay: Western blot for dimethylated H3K4 in SH-SY5Y cells; format: cell-based
Excerpt: B-actin was used as a loading control.

R6/2 mice [1] = assay: Two-choice swim test in R6/2 mouse; format: in vivo; details: transgenic R6/2 mice
Excerpt: Eighty male and female R6/2 mice and 20 male and female wild-type littermate control mice (F1 generation) will be bred by Cerebricon at FELASA compliant National Animal Facility Center Kuopio by mating (F0 generation) WT males (C57BL6CBA F1 hybrid, JAX) with ovarian transferred (01) TG females (JAX). Breeder animals receive igloos instead of play tunnels, nylabone and cotton nestlets and use Purina diet 5008. Upon weaning, pups receive Purina diet 5001.
Sertraline will be made fresh daily by diluting to 1% TWEEN® 80 in ddH2°.
Two-Choice Swim Test: The two-choice swim test is performed at age week 9. The swim tank (dimensions: 70 cm×30 cm×30 cm) is filled with water (26±1° C.) no higher than 1 cm from the top of a hidden escape platform. The hidden cylindrical platform (diameter, 6.0 cm, height,˜9 cm) is placed either at right or left end of the tank. During acquisition of the task, each mouse is given six training trials per day to swim towards or away from the right end (counterbalanced across subjects) to escape onto the platform. […] A choice is recorded when a mouse moves towards one end and swims beyond 20 cm from the center. If the mouse fails to make a choice within about 15 minutes a “no choice” is recorded. […] In all trials, choice, latency and “no choice” are recorded.

[2] = Body weight loss in chronically treated R6/2 mouse; format: in vivo; details: R6/2 mice, 5 mg/kg or 10 mg/kg IP per day, chronic
Excerpt: More easily measured is body weight loss.
In the R6/2 mouse study described above the weight of the animals were monitored to determine if the LSD1 or LSD1/MAO-B dual inhibitor cause weight loss in chronically treated animals. […] .

mouse haloperidol model = assay: Mouse haloperidol model of catalepsy; format: in vivo; details: control caffeine
Excerpt: See, e.g., East et al. (2010), Bioorg. Med Chem. Lett., August 15; 20(16):4901-5, Epub 2010 Jun. 25.

R6/2 mice [3] = assay: Longevity / survival study in R6/2 mouse; details: for survival versus vehicle and sertraline treated animals: 10 mg/kg
Description: The solutions are made and stored according to instructions provided by the sponsor (storage conditions and expiration day of solution).
Body weight is measured starting at age of four weeks and two times per week on the same day (i.e., Monday and Thursday) until end of the study. For convenience this is done just prior to animals receiving doses for those days. Animals are monitored twice-a-day by laboratory personnel (8 am and 4 pm) for “survival.” It is most optimal to measure “true survival” that is when the mouse has no detectable heartbeat. Since IACUC restrictions prevent this then using a definable and quantifiable endpoint for “survival” need to be used (see section 2.7 humane end-points). […] For instance, body temperature changes can drop just before death but many R6/2 mice show spontaneous death without preceding body temperature changes. More easily measured is body weight loss. […] Again mice that die spontaneously may not show such acute body weight changes. For these alternative measures combining these “survival” data (body weight or temperature decrease) with “survival” of spontaneous death mice (age found dead in a cage) is suitable.

[4] = target: T1, Human recombinant monoamine oxidase MAO-A (Homo sapiens, UniProt P21397); assay: MAO-A inhibition assay (kynuramine fluorescence); format: biochemical
T1 construct: purchased Sigma Aldrich
T1 sequence (P21397 1-527): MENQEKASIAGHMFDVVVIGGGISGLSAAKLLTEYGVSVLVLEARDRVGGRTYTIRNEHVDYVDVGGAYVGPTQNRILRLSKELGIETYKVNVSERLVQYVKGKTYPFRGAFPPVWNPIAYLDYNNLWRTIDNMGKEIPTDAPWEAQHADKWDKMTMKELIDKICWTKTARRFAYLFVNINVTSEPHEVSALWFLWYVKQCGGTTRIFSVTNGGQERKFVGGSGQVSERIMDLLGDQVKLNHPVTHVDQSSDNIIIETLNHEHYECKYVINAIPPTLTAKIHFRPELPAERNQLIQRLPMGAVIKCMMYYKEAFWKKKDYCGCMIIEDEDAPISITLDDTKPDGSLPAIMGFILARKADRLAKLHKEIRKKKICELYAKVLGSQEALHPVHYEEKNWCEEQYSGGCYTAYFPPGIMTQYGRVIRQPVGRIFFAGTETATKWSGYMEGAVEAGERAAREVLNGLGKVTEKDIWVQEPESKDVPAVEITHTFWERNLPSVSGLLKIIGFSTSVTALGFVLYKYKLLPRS
Excerpt: Human recombinant monoamine oxidase proteins MAO-A and MAO-B were purchased from Sigma Aldrich. MAOs catalyze the oxidative deamination of primary, secondary and tertiary amines. In order to monitor MAO enzymatic activities and/or their inhibition rate by inhibitor(s) of interest, a fluorescent-based (inhibitor)-screening assay was set up. 3-(2-Aminophenyl)-3-oxopropanamine (kynuramine dihydrobromide, Sigma Aldrich), a non fluorescent compound was chosen as a substrate. Kynuramine is a non-specific substrate for both MAOs activities. While undergoing oxidative deamination by MAO activities, kynuramine is converted into 4-hydroxyquinoline (4-HQ), a resulting fluorescent product.
The monoamine oxidase activity was estimated by measuring the conversion of kynuramine into 4-hydroxyquinoline. Assays were conducted in 96-well black plates with clear bottom (Corning) in a final volume of 100 μL. The assay buffer was 100 mM HEPES, pH 7.5. Each experiment was performed in triplicate within the same experiment. […] The conversion of kynuramine to 4-hydroxyquinoline, was monitored by fluorescence (excitation at 320 nm, emission at 360 nm) using a microplate reader (Infinite 200, Tecan). Arbitrary units were used to measure levels of fluorescence produced in the absence and/or in the presence of inhibitor. […] The Ki (TC50) of each inhibitor was determined at Vmax/2.

[5] = tested on: Drosophila melanogaster expressing HD-Q120; assay: Eye (rhabdomere) degeneration in Huntington disease fly line B-8533; format: in vivo; details: 1 μM and 5 μM
Excerpt: The eye of the fruit fly, Drosophila melanogaster, provides an ideal model system for studying neuronal survival. Each eye consists of approximately 800 units called ommatidia arranged in a regular pattern and the photoreceptors that compose each ommatidium exist in an ordered trapezoidal array. The presence and organization of these cells can be readily assessed using a technique called optical neutralization of the cornea (Franceschini and Kirschfeld, 1971).
This technique is being used in a screen for compounds that can rescue the neurodegenerative phenotype of a Drosophila model of Huntingtons disease (HD), fly line B-8533 (Jackson et al., 1998). This line contains a P-element construct inserted on the second chromosome, P{w+ gmr.HD-Q120)}. The construct contains a w+ visible eye-color marker, which enables confirmation of the presence of the insertion. […]
The now three- to ten-day-old flies are added to the vials (six to ten females and three males in each), incubated at 25° for seven to ten days. […] F1 eclosion-start date is noted and males and females are counted. […] Ommatidia are scored for number of visible rhabdomeres (0 to 7). […] Significance can be determined by the Mann-Whitney U-test or one-tailed student's T-test. […]

Compound: NC(=O)CNC1CC1c1ccc(OCc2ccccc2)cc1 (stereo not shown) [Compound Dual-1]
levels of dimethylated H3K4 (western blot) (SH-SY5Y cells; 100 μM, one, two and three days): increases H3K4 methylation in cells in a time dependent manner; also recorded: increases levels of dimethylated H3K4 in cells in a time dependent manner | potency at increasing global dimethylated H3K4 levels as compared to tranylcypromine (SH-SY5Y cells; Dual-1 100 μM vs parnate 250 μM): ten-fold or more potent | other parameters of two-choice swim test (R6/2 mice [1]; 5 mg/kg ip): clear trend (NS) | performance in two-choice swim test (latency to find the platform) (R6/2 mice [1]; 5 mg/kg ip once-a-day, age week 9, 5 mg/kg): significantly improved the performance; also recorded: improved response in the two-choice swim test | body weight loss compared to transgenic animals treated with vehicle or sertraline [2]: caused no significant weight loss; also recorded: did not have substantially different weight losses | rescue of toxin induced deficit (catalepsy) (mouse haloperidol model): rescue the toxin induced deficit in a manner similar to or better than control compound caffeine or no treatment | longevity (overall survival) (R6/2 mice [3]; R6/2 mouse study): can increase the longevity | survival versus vehicle and sertraline treated animals (R6/2 mice [3]; female R6/2 mice): survived longer | survival versus vehicle and sertraline treated animals (R6/2 mice [3]; male and female R6/2 mice): survived longer

Compound: CN1CCN(C(=O)CNC2CC2c2ccc(OCc3ccccc3)cc2)CC1 (stereo not shown) [Compound Selective-1]
IC50 [4]: > 1000 nM | rhabdomere degeneration as compared to vehicle treated flies ([5]; day 2): reduced rhadomere degeneration | rescue of eye degeneration phenotype as compared to vehicle treated fly ([5]; day not stated): in a concentration dependent manner rescues the eye degeneration phenotype

IC50 ([4]; read-out: MAO-A IC50): > 1000 nM
Compound: CN1CCN(C(=O)CNC2CC2c2ccc(C3CC3)cc2)CC1 (stereo not shown) [Selective-2]
